In paper PMC9090415, “Discovery of small molecule inhibitors of Plasmodium falciparum apicoplast DNA polymerase” (Journal of Enzyme Inhibition and Medicinal Chemistry, 2022):

Biological target: P. falciparum apicoplast DNA polymerase (Pf-apPOL) (Plasmodium falciparum, UniProt Q8ILY1)
Assay: Fluorescence-based high-throughput DNA polymerase assay (molecular beacon), primary screen and dose-response;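 as to % inhibition ApPOL 90': test concentration in µM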;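 as to % inhibition apPOL 180': test concentration in µM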
Type: biochemical
Method in brief: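 Single-point screening used 10 µM compound with 20 nM polymerase, 20 nM hairpin substrate and 6 µM dNTPs for 90 min at 25 °C. Confirmatory titrations (2.5–80 µM) followed fluorescence at three times, and IC50 was derived from a fit including a cooperativity term n.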

[1] = primary screen value of the 186 hits; unit not given; 90 min, 10 µM

P. falciparum apicoplast DNA polymerase (Pf-apPOL), sequence (Q8ILY1 entry or part of it): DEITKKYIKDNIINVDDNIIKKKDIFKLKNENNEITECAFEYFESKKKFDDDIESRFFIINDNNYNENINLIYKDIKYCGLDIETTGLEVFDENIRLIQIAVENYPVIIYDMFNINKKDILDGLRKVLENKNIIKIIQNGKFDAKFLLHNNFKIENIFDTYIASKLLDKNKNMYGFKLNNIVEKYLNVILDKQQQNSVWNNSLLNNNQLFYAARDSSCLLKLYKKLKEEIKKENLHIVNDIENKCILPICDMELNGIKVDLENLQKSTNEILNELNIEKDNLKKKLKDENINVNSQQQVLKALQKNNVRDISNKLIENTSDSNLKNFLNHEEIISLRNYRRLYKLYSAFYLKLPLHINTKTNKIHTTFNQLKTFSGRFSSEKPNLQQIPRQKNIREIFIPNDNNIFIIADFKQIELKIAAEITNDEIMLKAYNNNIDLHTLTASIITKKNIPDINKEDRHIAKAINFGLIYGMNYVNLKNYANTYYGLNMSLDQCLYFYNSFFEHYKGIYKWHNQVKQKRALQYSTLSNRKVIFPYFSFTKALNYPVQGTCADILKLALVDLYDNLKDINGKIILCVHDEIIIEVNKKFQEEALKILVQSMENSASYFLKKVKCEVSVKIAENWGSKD

SMILES: COc1ccc(C=C2Oc3c(ccc4c3CN(c3ccc5c(c3)OCO5)CO4)C2=O)cc1OC [KU0199426]
- % inhibition Apo pol 10' (DRC-1; 10'; concentration 2.5): 6.7092%
- % inhibition Apo pol 10' (DRC-1; 10'; concentration 5): 10.8011%
- % inhibition Apo pol 10' (DRC-1; 10'; concentration 10): 30.1784%
- % inhibition Apo pol 10' (DRC-1; 10'; concentration 20): 49.962%
- % inhibition Apo pol 10' (DRC-1; 10'; concentration 40): 63.2111%
- % inhibition Apo pol 10' (DRC-1; 10'; concentration 80): 69.0086%
- % inhibition Apol 90' (DRC-1; 90'; concentration 2.5): 9.888%
- % inhibition Apol 90' (DRC-1; 90'; concentration 5): 17.5134%
- % inhibition Apol 90' (DRC-1; 90'; concentration 10): 37.0525%
- % inhibition Apol 90' (DRC-1; 90'; concentration 20): 55.1818%
- % inhibition Apol 90' (DRC-1; 90'; concentration 40): 69.2799%
- % inhibition Apol 90' (DRC-1; 90'; concentration 80): 72.5355%
- % inhibition apPOL 180' (DRC-1; 180'; concentration 2.5): 14.753%
- % inhibition apPOL 180' (DRC-1; 180'; concentration 5): 23.9693%
- % inhibition apPOL 180' (DRC-1; 180'; concentration 10): 43.333%
- % inhibition apPOL 180' (DRC-1; 180'; concentration 20): 61.4424%
- % inhibition apPOL 180' (DRC-1; 180'; concentration 40): 79.6981%
- % inhibition apPOL 180' (DRC-1; 180'; concentration 80): 86.1468%
- % inhibition Apo pol 5' (DRC-2; 5'; concentration 2.5): 6.46%
- % inhibition Apo pol 5' (DRC-2; 5'; concentration 5): 7.39%
- % inhibition Apo pol 5' (DRC-2; 5'; concentration 10): 27%
- % inhibition Apo pol 5' (DRC-2; 5'; concentration 20): 45%
- % inhibition Apo pol 5' (DRC-2; 5'; concentration 40): 42%
- % inhibition Apo pol 5' (DRC-2; 5'; concentration 80): 45%
- % inhibition Apol 40' (DRC-2; 40'; concentration 2.5): 6%
- % inhibition Apol 40' (DRC-2; 40'; concentration 5): -2.71%
- % inhibition Apol 40' (DRC-2; 40'; concentration 10): 30%
- % inhibition Apol 40' (DRC-2; 40'; concentration 20): 63%
- % inhibition Apol 40' (DRC-2; 40'; concentration 40): 43%
- % inhibition Apol 40' (DRC-2; 40'; concentration 80): 44%
- % inhibition ApPOL 90' (DRC-2; 90'; concentration 2.5): 4.67%
- % inhibition ApPOL 90' (DRC-2; 90'; concentration 5): -12%
- % inhibition ApPOL 90' (DRC-2; 90'; concentration 10): 27%
- % inhibition ApPOL 90' (DRC-2; 90'; concentration 20): 69%
- % inhibition ApPOL 90' (DRC-2; 90'; concentration 40): 41%
- % inhibition ApPOL 90' (DRC-2; 90'; concentration 80): 43%
- % inhibition apPOL 180' (DRC-2; 180'; concentration 2.5): -0.788%
- % inhibition apPOL 180' (DRC-2; 180'; concentration 5): -86%
- % inhibition apPOL 180' (DRC-2; 180'; concentration 10): 16%
- % inhibition apPOL 180' (DRC-2; 180'; concentration 20): 76%
- % inhibition apPOL 180' (DRC-2; 180'; concentration 40): 34%
- % inhibition apPOL 180' (DRC-2; 180'; concentration 80): 39%
- % inhibition Apo pol 5' (conc. 10; 5'; DRC-2): 27%
- % inhibition ApPOL 90' (conc. 10; 90'; DRC-2): 27%
- % inhibition Apo pol 5' (conc. 20; 5'; DRC-2): 45%
- % inhibition Apol 40' (conc. 40; 40'; DRC-2): 43%
- % inhibition Apo pol 5' (conc. 80; 5'; DRC-2): 45%
- % inhibition ApPOL 90' (conc. 80; 90'; DRC-2): 43%
- DNA Pol (primary screen value by plate and well; 90 min, 10 µM): 28
- DNA Pol [1]: 28

SMILES: CCCN1COc2ccc3c(=O)c(-c4ccccc4)coc3c2C1 [KU0199556]
- % inhibition Apo pol 10' (DRC-1; concentration 2.5; 10'): 3.335%
- % inhibition Apol 90' (DRC-1; concentration 2.5; 90'): 6.953%
- % inhibition apPOL 180' (DRC-1; concentration 2.5; 180'): 12.8227%
- % inhibition Apo pol 10' (DRC-1; concentration 5; 10'): 0.6816%
- % inhibition Apol 90' (DRC-1; concentration 5; 90'): 8.234%
- % inhibition apPOL 180' (DRC-1; concentration 5; 180'): 17.5775%
- % inhibition Apo pol 10' (DRC-1; concentration 10; 10'): 12.2491%
- % inhibition Apol 90' (DRC-1; concentration 10; 90'): 22.7546%
- % inhibition apPOL 180' (DRC-1; concentration 10; 180'): 37.4083%
- % inhibition Apo pol 10' (DRC-1; concentration 20; 10'): 29.2216%
- % inhibition Apol 90' (DRC-1; concentration 20; 90'): 42.6091%
- % inhibition apPOL 180' (DRC-1; concentration 20; 180'): 58.6511%
- % inhibition Apo pol 10' (DRC-1; concentration 40; 10'): 57.482%
- % inhibition Apol 90' (DRC-1; concentration 40; 90'): 69.5557%
- % inhibition apPOL 180' (DRC-1; concentration 40; 180'): 84.4582%
- % inhibition Apo pol 10' (DRC-1; concentration 80 (unit not given); 10'): 71.548%
- % inhibition Apol 90' (DRC-1; concentration 80; 90'): 77.7995%
- % inhibition apPOL 180' (DRC-1; concentration 80; 180'): 92.1066%
- % inhibition Apo pol 5' (DRC-2; 5'; concentration 80): 51%
- % inhibition Apol 40' (DRC-2; 40'; concentration 80): 51%
- % inhibition ApPOL 90' (DRC-2; 90'; concentration 20): 39%
- % inhibition ApPOL 90' (DRC-2; 90'; concentration 40): 51%
- % inhibition apPOL 180' (DRC-2; 180'; concentration 80): 39%
- % inhibition Apo pol 5' (DRC-2; concentration 2.5; 5'): 7.48%
- % inhibition Apol 40' (DRC-2; concentration 2.5; 40'): 5%
- % inhibition ApPOL 90' (DRC-2; concentration 2.5; 90'): 3.57%
- % inhibition apPOL 180' (DRC-2; concentration 2.5; 180'): -2.43%
- % inhibition Apo pol 5' (DRC-2; concentration 5; 5'): 10%
- % inhibition Apol 40' (DRC-2; concentration 5; 40'): 0.118%
- % inhibition ApPOL 90' (DRC-2; concentration 5; 90'): -8%
- % inhibition apPOL 180' (DRC-2; concentration 5; 180'): -84%
- % inhibition Apo pol 5' (DRC-2; concentration 10; 5'): 25%
- % inhibition Apol 40' (DRC-2; concentration 10; 40'): 23%
- % inhibition ApPOL 90' (DRC-2; concentration 10; 90'): 20%
- % inhibition apPOL 180' (DRC-2; concentration 10; 180'): 6.45%
- % inhibition Apo pol 5' (DRC-2; concentration 20; 5'): 41%
- % inhibition Apol 40' (DRC-2; concentration 20; 40'): 42%
- % inhibition ApPOL 90' (DRC-2; concentration 20; 90'): 39%
- % inhibition apPOL 180' (DRC-2; concentration 20; 180'): 22%
- % inhibition Apo pol 5' (DRC-2; concentration 40; 5'): 52%
- % inhibition Apol 40' (DRC-2; concentration 40; 40'): 55%
- % inhibition ApPOL 90' (DRC-2; concentration 40; 90'): 51%
- % inhibition apPOL 180' (DRC-2; concentration 40; 180'): 38%
- % inhibition Apo pol 5' (DRC-2; concentration 80; 5'): 51%
- % inhibition Apol 40' (DRC-2; concentration 80; 40'): 51%
- % inhibition ApPOL 90' (DRC-2; concentration 80; 90'): 48%
- % inhibition apPOL 180' (DRC-2; concentration 80; 180'): 39%
- DNA Pol [1]: 28
- DNA Pol (primary screen value; head prints only 'DNA Pol'; 90 min, 10 µM): 28
